How the values were obtained:
[1] = biological target: T1, M-phase inducer phosphatase 1 (Homo sapiens, UniProt P30304); assay: Inhibition of Cdc25A (unknown origin) phosphatase activity assessed as fluorescence by BMG plate reader in the absence of detergent
T1 sequence (P30304 whole entry): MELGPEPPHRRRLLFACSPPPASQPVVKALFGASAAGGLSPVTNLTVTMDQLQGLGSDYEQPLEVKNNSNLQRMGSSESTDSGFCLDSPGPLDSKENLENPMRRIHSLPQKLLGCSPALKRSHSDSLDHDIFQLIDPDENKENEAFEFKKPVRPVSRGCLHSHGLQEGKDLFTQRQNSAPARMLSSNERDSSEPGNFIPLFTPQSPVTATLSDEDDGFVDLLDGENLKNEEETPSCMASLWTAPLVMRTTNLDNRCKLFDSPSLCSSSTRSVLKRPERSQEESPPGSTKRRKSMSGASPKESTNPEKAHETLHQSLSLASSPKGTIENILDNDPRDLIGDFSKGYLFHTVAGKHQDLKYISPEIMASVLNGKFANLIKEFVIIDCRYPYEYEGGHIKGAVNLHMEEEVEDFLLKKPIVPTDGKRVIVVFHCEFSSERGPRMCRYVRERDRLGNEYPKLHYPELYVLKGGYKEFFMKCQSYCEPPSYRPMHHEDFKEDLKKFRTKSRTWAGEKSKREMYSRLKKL

[2] = biological target: T2, M-phase inducer phosphatase 2 (Homo sapiens, UniProt P30305); assay: Inhibition of Cdc25B (unknown origin) phosphatase activity assessed as fluorescence by BMG plate reader in the presence of 0.005% Tween-20
T2 sequence (P30305 whole entry): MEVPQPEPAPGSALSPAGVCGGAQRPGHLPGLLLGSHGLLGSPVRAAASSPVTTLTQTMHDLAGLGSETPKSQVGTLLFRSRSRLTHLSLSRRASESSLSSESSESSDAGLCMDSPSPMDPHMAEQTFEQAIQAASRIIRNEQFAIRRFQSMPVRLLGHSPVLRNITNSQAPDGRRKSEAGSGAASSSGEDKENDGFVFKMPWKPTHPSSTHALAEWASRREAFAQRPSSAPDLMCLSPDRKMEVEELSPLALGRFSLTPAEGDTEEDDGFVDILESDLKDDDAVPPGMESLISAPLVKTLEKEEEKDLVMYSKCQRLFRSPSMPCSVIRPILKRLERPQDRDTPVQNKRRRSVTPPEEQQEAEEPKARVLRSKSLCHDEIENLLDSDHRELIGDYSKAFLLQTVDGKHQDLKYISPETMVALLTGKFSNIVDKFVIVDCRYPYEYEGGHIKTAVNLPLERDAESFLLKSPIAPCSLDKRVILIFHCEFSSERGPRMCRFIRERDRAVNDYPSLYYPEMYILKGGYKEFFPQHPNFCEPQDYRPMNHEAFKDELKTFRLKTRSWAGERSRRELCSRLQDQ

[3] = biological target: T3, M-phase inducer phosphatase 3 (Homo sapiens, UniProt P30307); assay: Inhibition of Cdc25C (unknown origin) phosphatase activity assessed as fluorescence by BMG plate reader in the presence of 0.005% Tween-20
T3 sequence (P30307 whole entry): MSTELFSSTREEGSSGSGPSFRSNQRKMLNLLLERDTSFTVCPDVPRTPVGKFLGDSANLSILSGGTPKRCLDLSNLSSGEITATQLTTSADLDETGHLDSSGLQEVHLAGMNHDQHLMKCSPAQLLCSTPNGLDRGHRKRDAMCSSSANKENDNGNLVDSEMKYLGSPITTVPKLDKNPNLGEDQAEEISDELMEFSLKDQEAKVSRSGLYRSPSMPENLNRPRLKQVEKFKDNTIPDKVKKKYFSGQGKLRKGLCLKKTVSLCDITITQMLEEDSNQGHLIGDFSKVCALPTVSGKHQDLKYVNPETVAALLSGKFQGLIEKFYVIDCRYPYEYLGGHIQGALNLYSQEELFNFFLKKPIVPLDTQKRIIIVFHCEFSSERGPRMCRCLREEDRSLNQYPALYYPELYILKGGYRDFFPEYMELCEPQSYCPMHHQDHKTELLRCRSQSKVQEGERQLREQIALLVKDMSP

[4] = biological target: T1, M-phase inducer phosphatase 1; assay: Inhibition of Cdc25A (unknown origin) phosphatase activity assessed as fluorescence by BMG plate reader in the presence of 0.005% Tween-20
[5] = biological target: T4, Dual specificity protein phosphatase 3 (Homo sapiens, UniProt P51452); assay: Inhibition of human His-tagged VHR phosphatase activity assessed as fluorescence by BMG plate reader in the absence of detergent
T4 sequence (P51452 whole entry): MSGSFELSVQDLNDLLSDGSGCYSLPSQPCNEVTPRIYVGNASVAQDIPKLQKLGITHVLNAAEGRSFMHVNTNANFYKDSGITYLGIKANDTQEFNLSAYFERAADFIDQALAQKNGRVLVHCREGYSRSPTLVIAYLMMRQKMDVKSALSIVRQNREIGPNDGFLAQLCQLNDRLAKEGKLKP

[6] = biological target: T2, M-phase inducer phosphatase 2; assay: Inhibition of Cdc25B (unknown origin) phosphatase activity assessed as fluorescence by BMG plate reader in the absence of detergent
[7] = biological target: T3, M-phase inducer phosphatase 3; assay: Inhibition of Cdc25C (unknown origin) phosphatase activity assessed as fluorescence by BMG plate reader in the absence of detergent
[8] = biological target: T4, Dual specificity protein phosphatase 3; assay: Inhibition of human His-tagged VHR phosphatase activity assessed as fluorescence by BMG plate reader in the presence of 0.005% Tween-20
Homo sapiens [9] = organism: Homo sapiens; assay: Inhibition of alkaline phosphatase (unknown origin) phosphatase activity assessed as fluorescence at 100 uM by BMG plate reader in the presence of 0.005% Tween-20
Homo sapiens [10] = organism: Homo sapiens; assay: Inhibition of MKP-5/p38 (unknown origin) phosphatase activity assessed as fluorescence at 100 uM by BMG plate reader in the presence of 0.005% Tween-20
[11] = biological target: T5, Tyrosine-protein phosphatase non-receptor type 1 (Homo sapiens) (UniProt P18031); assay: Inhibition of PTP1B (unknown origin) phosphatase activity assessed as fluorescence at 100 uM by BMG plate reader in the presence of 0.005% Tween-20
T5 sequence (whole entry): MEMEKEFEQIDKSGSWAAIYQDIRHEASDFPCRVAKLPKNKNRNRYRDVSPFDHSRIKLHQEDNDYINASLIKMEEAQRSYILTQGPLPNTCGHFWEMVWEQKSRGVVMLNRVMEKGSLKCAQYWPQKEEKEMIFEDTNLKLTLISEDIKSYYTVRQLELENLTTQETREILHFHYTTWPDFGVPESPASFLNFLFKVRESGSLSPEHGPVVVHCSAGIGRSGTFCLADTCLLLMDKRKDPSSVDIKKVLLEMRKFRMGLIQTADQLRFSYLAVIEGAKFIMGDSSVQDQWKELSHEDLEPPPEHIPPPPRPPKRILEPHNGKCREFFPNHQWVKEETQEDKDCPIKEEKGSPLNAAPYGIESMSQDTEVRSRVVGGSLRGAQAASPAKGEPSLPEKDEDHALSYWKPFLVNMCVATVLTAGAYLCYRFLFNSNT

IC50 [1]	IC50 [2]	IC50 [3]	IC50 [4]	IC50 [5]	IC50 [6]	IC50 [7]	IC50 [8]	inhibition (Homo sapiens [9])	inhibition (Homo sapiens [10])	inhibition [11]	SMILES
10.2 µM	> 100 µM	42.2 µM	> 100 µM	8.9 µM	14.9 µM	16.8 µM	> 100 µM				COc1ccc(-c2csc(-c3cccc(NC(=O)C4CC4)c3)n2)cc1
	5.9 µM	9.4 µM	12.3 µM				24.9 µM				O=C(CCC(=O)NC1CCCC1)Nc1nc(-c2cc3ccccc3oc2=O)cs1
4 µM	31.3 µM	42.6 µM	41.7 µM	2.7 µM	10.1 µM	14.2 µM	40.2 µM	< 50%	< 50%	< 50%	COc1ccccc1-c1nc(-c2ccc3c(c2)CCN3S(C)(=O)=O)cs1
2.4 µM	17.9 µM	47.3 µM	23.6 µM	1.9 µM	8.9 µM	10.2 µM	20.1 µM	< 50%	< 50%	< 50%	CCOc1ccc(-c2nc(-c3ccc4[nH]c(=O)[nH]c4c3)cs2)cc1
	4.2 µM	8.6 µM	6.9 µM				> 100 µM				O=C(Nc1cccc(-c2csc(-c3ccccc3)n2)c1)c1cccc(=O)[nH]1
	6.8 µM		17.5 µM				> 100 µM				COc1ccc(-c2nc(C(=O)Nc3ccc[nH]c3=O)cs2)cc1
	16 µM	40 µM	25.7 µM				> 100 µM				O=C(Nc1nc(-c2ccc(F)cc2)cs1)c1cnccn1
5.6 µM	34.4 µM	37.8 µM	31.8 µM	8 µM	19 µM	24.3 µM	40.1 µM	< 50%	< 50%	< 50%	Cc1cccc(-c2nc(-c3ccc4c(c3)CCN4S(C)(=O)=O)cs2)c1
	19.7 µM	> 100 µM	25 µM				> 100 µM				COc1ccc(-c2nc(-c3cnc(N)nc3)cs2)cc1
	5 µM	5 µM	5 µM								O=C1C(=O)c2c(C(=O)c3ccccc3)coc2-c2ccccc21

More lines, now with the values behind:

SMILES	IC50 [1]	IC50 [2]	IC50 [3]	IC50 [4]	IC50 [5]	IC50 [6]	IC50 [7]	IC50 [8]	inhibition (Homo sapiens [9])	inhibition (Homo sapiens [10])	inhibition [11]
CCOc1ccc(-c2nc(-c3ccc4c(c3)CC(=O)N4C)cs2)cc1	9.5 µM	50 µM	47.6 µM	33.6 µM	10.6 µM	22.7 µM	> 100 µM	64.5 µM	< 50%	< 50%	< 50%
O=C(CCC(=O)Nc1nc(-c2cc3ccccc3oc2=O)cs1)NCc1ccc2c(c1)OCO2		0.9 µM	8.2 µM	20.1 µM				17 µM			
COc1ccc(-c2nc(-c3cc(C)n(CC4CCCO4)c3C)cs2)cc1 (configuration not stated)	6.4 µM	23.6 µM	> 100 µM	31.1 µM	8.3 µM	12.1 µM	24.7 µM	33.3 µM	< 50%	< 50%	< 50%
N#Cc1ccc(-c2csc(-c3ccc(-c4csnn4)cc3)n2)cc1		3.1 µM	8.8 µM	12.2 µM				> 100 µM			
O=C(/C=C/c1ccc2c(c1)OCO2)Nc1nc(-c2ccc(F)cc2F)cs1		2.69 µM	11 µM	7.5 µM				65.7 µM			
COc1ccc(-c2nc(-c3ccc4c(c3)CCN4S(C)(=O)=O)cs2)cc1	6.5 µM	26.1 µM	42.5 µM	42.9 µM	8.1 µM	17.5 µM	18 µM	45.4 µM	< 50%	< 50%	< 50%
O=S(=O)(Cc1ccco1)Cc1nc(-c2ccc(-c3ccccc3)cc2)cs1		1.7 µM	9.7 µM	2.7 µM				26 µM			
O=C(Nc1cccc(-c2csc(-c3ccccc3)n2)c1)c1ccco1	17.8 µM	> 100 µM	> 100 µM	> 100 µM	26.1 µM	> 100 µM	> 100 µM	> 100 µM			
O=c1[nH]c2cc(S(=O)(=O)Nc3cccc(-c4csc(-c5ccccc5)n4)c3)ccc2o1		3.5 µM	44.4 µM	2.2 µM				34.8 µM			
CCOc1ccc(-c2nn(-c3ccccc3)cc2/C=C2\SC(=O)N(C)C2=O)cc1Br		2 µM									
CCOc1ccc(-c2nc(-c3ccc4ccccc4c3)cs2)cc1	13 µM	> 100 µM	71.5 µM	30 µM	4.4 µM	13.6 µM	31.5 µM	61 µM	< 50%	< 50%	< 50%
CCOC(=O)C1=C(C)N=c2s/c(=C\c3ccc(O)cc3)c(=O)n2C1c1ccc2c(c1)OCO2 (configuration not stated)		13 µM									

From ChEMBL document CHEMBL3217647, “Prospective use of molecular field points in ligand-based virtual screening: efficient identification of new reversible Cdc25 inhibitors” (Medchemcomm, 2013)
